Results reported in PMC6151961 (Journal of Enzyme Inhibition and Medicinal Chemistry, 2018).
Like-named read-outs stand apart in the source and are kept apart here.

Target: CA IX (Homo sapiens, UniProt Q16790)
Assay: biochemical
[1] = experimental value from the library Ki (IDs A…, B…), values equal log10 of Ki in nM
[2] = library compounds with IDs A… and B…, from observed Ki (nM)
[3] = experimental value used for the QSPR model, library compounds (IDs A…, B…), equals log10 of Ki in nM

NS(=O)(=O)c1ccc(NCc2cc(Br)ccc2O)cc1 [A0114]
log10 of Ki in nM [1]: 0.415

NS(=O)(=O)c1nnc(NS(=O)(=O)c2ccc(NC(=O)CCC(=O)O)cc2)s1 [A0151]
log10 of Ki in nM [1]: 0.477

NS(=O)(=O)c1ccc(CNC(=O)Cc2ccc(F)cc2)cc1 [A0160]
log10 of Ki in nM [1]: 0.491

NS(=O)(=O)c1ccc(C(=O)NNC(=O)Nc2ccc([N+](=O)[O-])cc2)cc1 [A0170]
log10 of Ki in nM: 0.505

Nc1cc(Nc2ccc(S(N)(=O)=O)cc2)nc(N)n1 [A0250]
log10 of Ki in nM [2]: 0.591

NS(=O)(=O)c1ccc(CCNCc2cc(Cl)cc(Cl)c2O)cc1 [A0260]
log10 of Ki in nM [3]: 0.613

Nc1nc(N)c2nc(CNCCc3ccc(S(N)(=O)=O)cc3)cnc2n1 [A0285]
log10 of Ki in nM [1]: 0.672

NS(=O)(=O)c1ccc(NC(=O)c2ccc(/N=C3\C(=O)Nc4ccc(F)cc43)cc2)cc1 [A0310]
log10 of Ki in nM [2]: 0.699

NS(=O)(=O)c1ccc(-n2c(S)nc3cc(F)ccc3c2=O)cc1 [A0315]
log10 of Ki in nM [3]: 0.708

Cc1cccc(Nc2nc(Cl)nc(Nc3ccc(S(N)(=O)=O)cc3)n2)c1 [A0317]
log10 of Ki in nM [3]: 0.708

NS(=O)(=O)c1ccc(CNS(=O)(=O)c2ccc(NC(=O)c3c(F)c(F)cc(F)c3F)cc2)cc1 [A0340]
log10 of Ki in nM [1]: 0.740

O=S1(=O)C=Cc2cc(-c3nnnn3-c3cccc4ccccc34)ccc2O1 [A0400]
log10 of Ki in nM [1]: 0.813

COc1ccc(C2=Nn3c(nnc3-c3ccc(S(N)(=O)=O)cc3)SC2)cc1 [A0402]
log10 of Ki in nM [1]: 0.813

CN(C)c1ccc(/N=N/c2ccc(S(N)(=O)=O)cc2)cc1 [A0408]
log10 of Ki in nM [1]: 0.820

NS(=O)(=O)c1ccc(NC(=S)N[C@@H]2O[C@H](CO)[C@H](O)[C@H](O)[C@H]2O)cc1 [A0430]
log10 of Ki in nM [1]: 0.845

NS(=O)(=O)c1ccc(OCc2ccc(F)cc2)cc1 [A0463]
log10 of Ki in nM: 0.869

CC(C)(C)OC(=O)NCCCCOc1ccc(S(N)(=O)=O)cc1 [A0486]
log10 of Ki in nM [3]: 0.886

COc1cc(OC)c(/C=C(\C#N)C(=O)Nc2ccc(S(N)(=O)=O)cc2)c(OC)c1 [A0495]
log10 of Ki in nM [1]: 0.892

Cc1ccc2c(n1)SCc1cnc(Nc3ccc(S(N)(=O)=O)cc3)nc1-2 [A0518]
log10 of Ki in nM [1]: 0.908

C#CCOc1ccc(S(N)(=O)=O)cc1 [A0523]
log10 of Ki in nM [3]: 0.914

CCOC(=O)c1ccc(NC(=O)NNC(=O)c2ccc(S(N)(=O)=O)cc2)cc1 [A0551]
log10 of Ki in nM [2]: 0.929

NS(=O)(=O)c1ccc(CNC(=S)N[C@@H]2O[C@H](CO)[C@@H](O)[C@H](O)[C@H]2O)cc1 [A0577]
log10 of Ki in nM: 0.944

O=S1(=O)C=Cc2cc(-n3cc(-c4cccc(F)c4)nn3)ccc2O1 [A0598]
log10 of Ki in nM [2]: 0.954

COC(=O)c1cn(-c2ccc(S(N)(=O)=O)cc2)nc1-c1ccc(F)cc1 [A0626]
log10 of Ki in nM [1]: 0.973

N#C/C(=C\c1ccc2c(c1)OCO2)C(=O)Nc1ccc(S(N)(=O)=O)cc1 [A0636]
log10 of Ki in nM [1]: 0.978

O=S1(=O)C=Cc2cc(-n3nncc3-c3cccc(C(F)(F)F)c3)ccc2O1 [A0646]
log10 of Ki in nM [2]: 0.982

NS(=O)(=O)c1ccc(CCNC(=S)Nc2ccc(C(=O)O)cc2)cc1 [A0666]
log10 of Ki in nM [3]: 1.000

O=C1c2ccccc2S(=O)(=O)N1Cc1cccc([N+](=O)[O-])c1 [A0700]
log10 of Ki in nM [1]: 1.041

NS(=O)(=O)OC1CCN(S(=O)(=O)[C@@H]2O[C@H](CO)[C@@H](O)[C@H](O)[C@H]2O)CC1 [A0701]
log10 of Ki in nM [2]: 1.041

NS(=O)(=O)c1ccc(-n2cc(-c3ccc(Br)cc3)c3c2N=CN2NC(=O)CN=C32)cc1 [A0710]
log10 of Ki in nM [2]: 1.068

CCOc1nc(NCCc2ccc(S(N)(=O)=O)cc2)nc(OCC)n1 [A0719]
log10 of Ki in nM: 1.079

NS(=O)(=O)c1ccc(OCCN2CCOCC2)cc1 [A0728]
log10 of Ki in nM [3]: 1.100

NS(=O)(=O)c1ccc(C(=O)NCCc2ccc(O)c(O)c2)cc1 [A0813]
log10 of Ki in nM [1]: 1.230

NS(=O)(=O)c1cnccc1-n1ccc(=O)cc1 [A0836]
log10 of Ki in nM [1]: 1.262

COc1ccc(-c2cc(CO)nn2-c2ccc(S(N)(=O)=O)cc2)cc1 [A0859]
log10 of Ki in nM [1]: 1.301
